Test results reported in US11186588B2 (AYUMI PHARMACEUTICAL CORPORATION, priority 2017, dated 2021).

How the values were obtained:
NF-κB = NF-κB reporter gene assay (TNF-α stimulated A549/NF-κB-luc cells); type: cell-based; conditions: Homo sapiens, TNF-α stimulation
Experimental: In order to evaluate NF-κB inhibitory activity of the present compounds, NF-κB reporter gene assay was carried out. The specific method is described below.
Gene recombinant human TNF-α (available from R&D systems, Cat No. 210-TA) was dissolved in D-PBS(−) (available from Wako Pure Chemical Industries, Ltd., Cat No. 293-72601) to prepare 100 μg/mL of TNF-α solution stock solution. 100 μg/mL of the TNF-α solution stock solution was diluted with the culture medium to prepare 10 ng/mL of TNF-α solution.
A549/NF-κB-luc cells (available from Panomics, Cat No. LR0051) were prepared at 375,000 cells/mL in the culture medium. The 375,000 cells/mL A549/NF-κB-luc cell suspension was seeded at 80 μL each on a white 96-well plate (available from Greiner, Cat No. 655073). One hour after seeding the cells, 10 μL of 2% DMSO solution (control) and each compound solution in each concentration were added to each well of the 96-well plate. One hour after the addition of each compound solution, 10 ng/mL of the TNF-α solution (10 μL) was added to each well of the 96-well plate. Three hours after the addition of 10 ng/mL of the TNF-α solution, 100 μL of Steady-Glo reagent (available from Promega, Cat No. E2510) was added to each well of the 96-well plate. After 30 to 90 minutes of the addition of the Steady-Glo reagent, the luminescence intensity of each well was detected by EnVision multilabel counter (available from PerkinElmer).
NF-κB inhibition rate (%) was calculated by the following equation using Microsoft EXCEL 2010. NF-κB inhibition rate (%)=100−{(luminescence intensity average value of each compound added well)−(average value of luminescence intensity of blank well))/(average value of luminescence intensity of control well)−(average value of luminescence intensity of blank well)}×100 In addition, IC50 values were calculated from the calculated NF-κB inhibition rate (%) using curve fitting software XLfit (available from IDBS).

[1] = target: Recombinant BRD4 (44-168) protein (Homo sapiens (Human), UniProt O60885); experiment: BRD4-H4KAc4 binding assay (amplified luminescence proximity homogeneous assay, AlphaScreen); conditions: 10 uM
Experimental: In order to evaluate BRD4 inhibitory activity of the present compounds, BRD4-H4KAc4 binding assay was carried out by an amplified luminescence proximity homogeneous assay. The specific method is described below.
H4KAc4 peptide (available from Toray Research Center, Inc., sequence SGRGK(Ac)GGK(Ac)GLGK(Ac)GGAK(Ac)RHR-K(Biotin)-NH2) was dissolved in 1×Assay buffer to prepare 1 mM H4KAc4 peptide stock solution.
N-terminal His tag/C-terminal FLAG tag-fused type Recombinant BRD4 (44-168) protein (available from Active Motif, Cat No. 31380) was diluted with 1×Assay buffer to 1,250-fold to prepare 250 nM BRD4 solution.
1% DMSO solution (control) and 2 μL of each compound solution in each concentration were added to each well of AlphaPlate-384 (from PerkinElmer, Cat No. 6008350). Next, 2 μL of 250 nM BRD4 solution was added to each well of AlphaPlate-384. Further, 2 μL of 250 nM H4KAc4 peptide solution was added to each well of AlphaPlate-384. After addition of the 250 nM H4KAc4 peptide solution, the mixture was allowed to stand at room temperature under light shielding for 60 minutes, and 4 μL of AlphaScreen beads were added to each well of AlphaPlate-384. After addition of the AlphaScreen beads, the mixture was allowed to stand at room temperature under light shielding for 60 minutes, emission at 520-620 nm upon excitation at 680 nm was detected by EnVision multilabel counter (from PerkinElmer), and binding of BRD4 and H4KAc4 was detected. Incidentally, the evaluation of each compound was carried out in duplicate (2 well per 1 compound).
The BRD4 inhibition rate (%) was calculated by the following equation using Microsoft EXCEL 2010. BRD4 inhibition rate (%)=100−{(luminescence intensity average value of each compound added well)−(average value of luminescence intensity of blank well))/(average value of luminescence intensity of control well)−(average value of luminescence intensity of blank well)}×100

IC50 (NF-κB) | inhibition at 10 µM [1] | SMILES
0.0519 µM | 100% | Cc1sc2c(c1C)C(c1ccc(Cl)cc1)=NN(Cc1ccccc1)c1nnc(C)n1-2 [Example 3, 6-benzyl-4-(4-chlorophenyl)-2,3,9-trimethyl-6H-thieno[2,3-e][1,2,4]triazolo[3,4-c][1,2,4]triazepine]
0.0864 µM | 100% | COc1cccc(CN2N=C(c3ccc(Cl)cc3)c3c(sc(C)c3C)-n3c(C)nnc32)c1 [Example 6, 4-(4-chlorophenyl)-6-(3-methoxybenzyl)-2,3,9-trimethyl-6H-thieno[2,3-e][1,2,4]triazolo[3,4-c][1,2,4]triazepine]
0.735 µM | 99.8% | Cc1sc2c(c1C)C(c1ccc(Cl)cc1)=NN(Cc1ccc(C(C)(C)C)cc1)c1nnc(C)n1-2 [Example 7, 6-(4-(tert-butyl)benzyl)-4-(4-chlorophenyl)-2,3,9-trimethyl-6H-thieno[2,3-e][1,2,4]triazolo[3,4-c][1,2,4]triazepine]
0.104 µM | 100% | Cc1sc2c(c1C)C(c1ccc(Cl)cc1)=NN(Cc1ccccc1F)c1nnc(C)n1-2 [Example 8, 4-(4-chlorophenyl)-6-(2-fluorobenzyl)-2,3,9-trimethyl-6H-thieno[2,3-e][1,2,4]triazolo[3,4-c][1,2,4]triazepine]
0.0176 µM | 100% | Cc1sc2c(c1C)C(c1ccc(Cl)cc1)=NN(Cc1cccc(F)c1)c1nnc(C)n1-2 [Example 9, 4-(4-chlorophenyl)-6-(3-fluorobenzyl)-2,3,9-trimethyl-6H-thieno[2,3-e][1,2,4]triazolo[3,4-c][1,2,4]triazepine]
0.192 µM | 100% | Cc1sc2c(c1C)C(c1ccc(Cl)cc1)=NN(Cc1ccccc1Cl)c1nnc(C)n1-2 [Example 10, 6-(2-chlorobenzyl)-4-(4-chlorophenyl)-2,3,9-trimethyl-6H-thieno[2,3-e][1,2,4]triazolo[3,4-c][1,2,4]triazepine]
0.291 µM | 100% | Cc1ccccc1CN1N=C(c2ccc(Cl)cc2)c2c(sc(C)c2C)-n2c(C)nnc21 [Example 11, 4-(4-chlorophenyl)-2,3,9-trimethyl-6-(2-methylbenzyl)-6H-thieno[2,3-e][1,2,4]triazolo[3,4-c][1,2,4]triazepine]
0.0321 µM | 100% | Cc1cccc(CN2N=C(c3ccc(Cl)cc3)c3c(sc(C)c3C)-n3c(C)nnc32)c1 [Example 12, 4-(4-chlorophenyl)-2,3,9-trimethyl-6-(3-methylbenzyl)-6H-thieno[2,3-e][1,2,4]triazolo[3,4-c][1,2,4]triazepine]
0.233 µM | 100% | Cc1ccc(CN2N=C(c3ccc(Cl)cc3)c3c(sc(C)c3C)-n3c(C)nnc32)cc1 [Example 13, 4-(4-chlorophenyl)-2,3,9-trimethyl-6-(4-methylbenzyl)-6H-thieno[2,3-e][1,2,4]triazolo[3,4-c][1,2,4]triazepine]
0.276 µM | 100% | Cc1sc2c(c1C)C(c1ccc(Cl)cc1)=NN(Cc1ccc(C(F)(F)F)cc1)c1nnc(C)n1-2 [Example 14, 4-(4-chlorophenyl)-2,3,9-trimethyl-6-(4-(trifluoromethyl)benzyl)-6H-thieno[2,3-e][1,2,4]triazolo[3,4-c][1,2,4]triazepine]
0.0775 µM | 100% | Cc1sc2c(c1C)C(c1ccc(Cl)cc1)=NN(Cc1cccc(Cl)c1)c1nnc(C)n1-2 [Example 16, 6-(3-chlorobenzyl)-4-(4-chlorophenyl)-2,3,9-trimethyl-6H-thieno[2,3-e][1,2,4]triazolo[3,4-c][1,2,4]triazepine]
0.144 µM | 100% | Cc1sc2c(c1C)C(c1ccc(Cl)cc1)=NN(Cc1cccc(C(F)(F)F)c1)c1nnc(C)n1-2 [Example 18, 4-(4-chlorophenyl)-2,3,9-trimethyl-6-(3-(trifluoromethyl)benzyl)-6H-thieno[2,3-e][1,2,4]triazolo[3,4-c][1,2,4]triazepine]
1.32 µM | 96.6% | Cc1sc2c(c1C)C(c1ccc(Cl)cc1)=NN(CCc1ccccc1)c1nnc(C)n1-2 [Example 19, 4-(4-chlorophenyl)-2,3,9-trimethyl-6-phenethyl-6H-thieno[2,3-e][1,2,4]triazolo[3,4-c][1,2,4]triazepine]
0.0303 µM | 100% | Cc1sc2c(c1C)C(c1ccc(Cl)cc1)=NN(Cc1cccc(F)n1)c1nnc(C)n1-2 [Example 21, 4-(4-chlorophenyl)-6-((6-fluoropyridin-2-yl)methyl)-2,3,9-trimethyl-6H-thieno[2,3-e][1,2,4]triazolo[3,4-c][1,2,4]triazepine]
0.158 µM | 100% | Cc1sc2c(c1C)C(c1ccc(Cl)cc1)=NN(Cc1ncccc1F)c1nnc(C)n1-2 [Example 23, 4-(4-chlorophenyl)-6-((3-fluoropyridin-2-yl)methyl)-2,3,9-trimethyl-6H-thieno[2,3-e][1,2,4]triazolo[3,4-c][1,2,4]triazepine]
1.05 µM | 100% | Cc1sc2c(c1C)C(c1ccc(Cl)cc1)=NN(Cc1ncccc1Cl)c1nnc(C)n1-2 [Example 24, 4-(4-chlorophenyl)-6-((3-chloropyridin-2-yl)methyl)-2,3,9-trimethyl-6H-thieno[2,3-e][1,2,4]triazolo[3,4-c][1,2,4]triazepine]
0.0123 µM | 100% | Cc1sc2c(c1C)C(c1ccc(Cl)cc1)=NN(Cc1ccc(F)nc1)c1nnc(C)n1-2 [Example 26, 4-(4-chlorophenyl)-6-((6-fluoropyridin-3-yl)methyl)-2,3,9-trimethyl-6H-thieno[2,3-e][1,2,4]triazolo[3,4-c][1,2,4]triazepine]
0.289 µM |  | Cc1sc2c(c1C)C(c1ccc(N)cc1)=NN(Cc1cncc(O)c1)c1nnc(C)n1-2 [Example 103, 5-((4-(4-aminophenyl)-2,3,9-trimethyl-6H-thieno[2,3-e][1,2,4]triazolo[3,4-c][1,2,4]triazepin-6-yl)methyl)pyridin-3-ol]
3.94 µM |  | Cc1sc2c(c1C)C(c1ccc(N)cc1)=NN(Cc1ccc(O)nc1)c1nnc(C)n1-2 [Example 104]
4.83 µM |  | Cc1sc2c(c1C)C(c1ccc(N)cc1)=NN(Cc1cccnc1)c1nnc(CO)n1-2 [Example 105, (4-(4-aminophenyl)-2,3-dimethyl-6-(pyridin-3-ylmethyl)-6H-thieno[2,3-e][1,2,4]triazolo[3,4-c][1,2,4]triazepin-9-yl)methanol]
1.84 µM |  | Cc1c(CO)sc2c1C(c1ccc(N)cc1)=NN(Cc1cccnc1)c1nnc(C)n1-2 [Example 106, (4-(4-aminophenyl)-3,9-dimethyl-6-(pyridin-3-ylmethyl)-6H-thieno[2,3-e][1,2,4]triazolo[3,4-c][1,2,4]triazepin-2-yl)methanol]
2.32 µM |  | Cc1sc2c(c1CO)C(c1ccc(N)cc1)=NN(Cc1cccnc1)c1nnc(C)n1-2 [Example 107, (4-(4-aminophenyl)-2,9-dimethyl-6-(pyridin-3-ylmethyl)-6H-thieno[2,3-e][1,2,4]triazolo[3,4-c][1,2,4]triazepin-3-yl)methanol]
4.02 µM |  | Cc1nnc2n1-c1scc(CCO)c1C(c1ccc(N)cc1)=NN2Cc1cccnc1 [Example 108, 2-(4-(4-aminophenyl)-9-methyl-6-(pyridin-3-ylmethyl)-6H-thieno[2,3-e][1,2,4]triazolo[3,4-c][1,2,4]triazepin-3-yl)ethane-1-ol]
